Test results taken from publication PMC7862523 (Clinical Pharmacokinetics, 2020).

Legend:
[1] = Association between model-derived AUC and pharmacodynamic biomarkers; type: in vivo, human
[2] = Population pharmacokinetic model
[3] = final population PK model, combined dataset

correlation between AUC and occurrence of lipodystrophy ([1]; any point during follow-up, W = 1687, p = 0.97): no apparent correlation | CL higher in CYP3A5 expressors compared with non-expressors ([2]; combined dataset): 19% | CL lower in female compared with male individuals ([2]; combined dataset): 21% | σadditive (SD), residual variability ([2]; final model): 0.641 | σexponential (SD), residual variability ([2]; final model): 0.281 | SLCO3A1 G > T on V (covariate scale factor) ([2]; final model, rs8027174): 0.81 | ωCL (SD), inter-individual variability of CL [2, 3]: 0.22 | ωV (SD), inter-individual variability of V [2, 3]: 0.33 | ωka (SD), inter-individual variability of ka [2, 3]: 0.60 | ka (absorption rate constant), estimate ([2]; final population PK model, combined dataset, typical value): 0.68 h⁻¹
SMILES: CC(C)CN(C[C@@H](O)[C@H](Cc1ccccc1)NC(=O)O[C@H]1CO[C@H]2OCC[C@H]21)S(=O)(=O)c1ccc(N)cc1 [Darunavir]
correlation between AUC and CD4 lymphocyte count ([1]; Spearman, p = 0.3): no apparent correlation | correlation between AUC and occurrence of CNS adverse events ([1]; any point during follow-up, W = 1613.5, p = 0.42): no apparent correlation | correlation between AUC and viral load ([1]; viral load > 40 or < 40 copies/mL, Wilcoxon W = 582, p = 0.45): no apparent correlation
